The source of these data is patent US9771359B1, “Substituted oxazole- and thiazole-based carboxamide and urea derivatives as vanilloid receptor ligands II” (MEDIFRON DBT INC., priority 2014, dated 2017).

Counter-ions that a name gives are not always drawn.

Chain of vanilloid receptor 1 (VR1/TRPV1) (Q8NER1 whole entry): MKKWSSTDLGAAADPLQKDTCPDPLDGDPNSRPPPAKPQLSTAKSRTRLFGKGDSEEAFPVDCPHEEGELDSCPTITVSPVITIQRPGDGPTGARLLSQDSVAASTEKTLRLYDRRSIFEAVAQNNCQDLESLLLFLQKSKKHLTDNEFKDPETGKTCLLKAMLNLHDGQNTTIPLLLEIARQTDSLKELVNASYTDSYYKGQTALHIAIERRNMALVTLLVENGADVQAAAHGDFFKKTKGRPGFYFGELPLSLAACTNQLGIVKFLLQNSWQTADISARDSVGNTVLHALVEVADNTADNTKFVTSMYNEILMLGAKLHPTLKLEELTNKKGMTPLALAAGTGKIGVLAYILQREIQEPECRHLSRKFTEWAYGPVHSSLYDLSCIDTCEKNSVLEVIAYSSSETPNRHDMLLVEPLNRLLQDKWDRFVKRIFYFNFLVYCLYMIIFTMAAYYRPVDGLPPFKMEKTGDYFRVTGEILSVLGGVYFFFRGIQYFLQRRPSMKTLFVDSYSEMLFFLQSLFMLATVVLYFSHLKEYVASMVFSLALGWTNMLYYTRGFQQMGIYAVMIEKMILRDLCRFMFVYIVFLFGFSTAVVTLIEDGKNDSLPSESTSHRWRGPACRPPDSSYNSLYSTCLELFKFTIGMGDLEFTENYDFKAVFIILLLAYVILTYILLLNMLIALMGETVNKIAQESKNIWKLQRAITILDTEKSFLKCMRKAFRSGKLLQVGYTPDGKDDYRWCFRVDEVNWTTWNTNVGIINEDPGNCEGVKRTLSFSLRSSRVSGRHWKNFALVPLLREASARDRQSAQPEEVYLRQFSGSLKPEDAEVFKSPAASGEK

The first assay has as its target vanilloid receptor 1 (VR1/TRPV1) (Homo sapiens (Human), UniProt Q8NER1). The assay can be described thus: FLIPR assay, Ca2+ influx in CHO K1 cells transfected with the human VR1 gene. The format is cell-based. As to conditions: CHO-K1; @5 μM test compound; capsaicin 100 nM; read-out: inhibition (as a percentage), Cap. The procedure:
Furthermore, preference may be given to compounds according to the first aspect of the invention that cause a 50% displacement of capsaicin, which is present at a concentration of 100 nM, in a FLIPR assay with CHO K1 cells which were transfected with the human VR1 gene at a concentration of less than 2 000 nM, preferably less than 1 000 nM, particularly preferably less than 300 nM, most particularly preferably less than 100 nM, even more preferably less than 75 nM, additionally preferably less than 50 nM, most preferably less than 10 nM. In the process, the Ca^2+ influx is quantified in the FLIPR assay with the aid of a Ca^2+-sensitive dye (type Fluo-4, Molecular Probes Europe BV, Leiden, the Netherlands) in a fluorescent imaging plate reader (FLIPR, Molecular Devices, Sunnyvale, USA), as described hereinafter.
The FLIPR protocol consists of 2 substance additions during a kinetic measurement. First the compounds to be tested (5 μM) are pipetted onto the cells and the Ca^2+ influx is determined in comparison to the control (capsaicin 10 μM), providing the result as % activation and representing the compound-alone effect (calculation at peak signal related to baseline). […] After 5 min incubation, the Ca^2+ influx is related to an injection of 100 nM of capsaicin and thereby the antagonistic effect of the test compounds detected.
Desensitising agonists and antagonists lead to suppression of the Ca^2+ influx. The % inhibition is calculated compared to the maximum achievable inhibition with 10 μM of capsaicin. Triple analyses (n=3) are carried out and repeated in at least 3 independent experiments.
Starting from the percentage displacement caused by different concentrations of the compounds to be tested of general formula I, IC50 inhibitory concentrations which cause a 50-% displacement of capsaicin were calculated. Ki values for the test substances were obtained by conversion by means of the Cheng-Prusoff equation (Cheng, Prusoff; Biochem. Pharmacol. 22, 3099-3108, 1973).
Chinese hamster ovary cells (CHO K1 cells, European Collection of Cell Cultures (ECACC) United Kingdom) are stably transfected with the VR1 gene. For functional testing, these cells are plated out on poly-D-lysine-coated black 96-well plates having a clear base (BD Biosciences, Heidelberg, Germany) at a density of 25,000 cells/well. The cells are incubated overnight at 37° C. and 5% CO2 in a culture medium (Ham's F12 nutrient mixture, 10% by volume of FCS (foetal calf serum), 18 μg/ml of L-proline). The next day the cells are incubated with Fluo-4 (Fluo-4 2 μM, 0.01% by volume of Pluronic F127, Molecular Probes in HBSS (Hank's buffered saline solution), Gibco Invitrogen GmbH, Karlsruhe, Germany) for 30 min at 37° C. Subsequently, the plates are washed three times with HBSS buffer and after further incubation for 15 min at RT used for Ca^2+ measurement in a FLIPR assay. The Ca^2+-dependent fluorescence is measured before and after the addition of the substances to be tested (λex wavelength=488 nm, λem=540 nm). Quantification is carried out by measuring the highest fluorescence intensity (FC, fluorescence counts) over time.
In the case of `CS(=O)(=O)CCc1ccc(NC(=O)NCc2oc(C(F)(F)F)nc2-c2cccc(Cl)c2)cn1` [EX-30, 1-((4-(3-chlorophenyl)-2-(trifluoromethyl)oxazol-5-yl)methyl)-3-(6-(2-(methylsulfonyl)ethyl)pyridin-3-yl)urea], the inhibition (usually the change of the read-out against control, counted positive when it falls) at 5 µM was found to be 41%.
Same read-out and setting: as for `O=C(NCc1oc(C(F)(F)F)nc1-c1cccc(Cl)c1)Nc1ccc(CCO)nc1` [EX-37, 1-((4-(3-chlorophenyl)-2-(trifluoromethyl)oxazol-5-yl)methyl)-3-(6-(2-hydroxyethyl)pyridin-3-yl)urea], the figure is 46%; as for `CC(C)(C)c1nc(-c2cccc(Cl)c2)c(CNC(=O)Nc2ccc(COCCO)nc2)o1` [EX-46, 1-((2-(tert-butyl)-4-(3-chlorophenyl)oxazol-5-yl)methyl)-3-(6-((2-hydroxyethoxy)methyl)pyridin-3-yl)urea dihydrochloride], 55%.
Still for that read-out and setting: as for `O=C(NCc1oc(C(F)(F)F)nc1-c1cccc(Cl)c1)Nc1ccc(COCCO)nc1` [EX-48, 1-((4-(3-chlorophenyl)-2-(trifluoromethyl)oxazol-5-yl)methyl)-3-(6-((2-hydroxyethoxy)methyl)pyridin-3-yl)urea dihydrochloride], the figure is 31%.

The same assay, now with this note: compound 5 μM, % activation compared with control capsaicin 10 μM.
As for `CC(C)(C)c1nc(-c2cccc(Cl)c2)c(CNC(=O)Nc2ccc(CO)nc2)o1` [EX-25, 1-((2-(tert-butyl)-4-(3-chlorophenyl)oxazol-5-yl)methyl)-3-(6-(hydroxymethyl)pyridin-3-yl)urea], the “compound-alone effect on Ca2+ influx (agonist / partial agonist)” value was “pAG (A Ca^2+ influx of 10%-60% reveals a partial agonist (pAG))”.
As for `CC(C)(C)c1nc(-c2cccc(Cl)c2)c(CNC(=O)Nc2ccc(CO)nc2)s1` [EX-26, 1-((2-(tert-butyl)-4-(3-chlorophenyl)thiazol-5-yl)methyl)-3-(6-(hydroxymethyl)pyridin-3-yl)urea], the “compound-alone effect on Ca2+ influx (agonist / partial agonist)” value is recorded as “pAG (A Ca^2+ influx of 10%-60% reveals a partial agonist (pAG))”.
The same measure, in the same setting: as for `O=C(NCc1sc(C(F)(F)F)nc1-c1cccc(Cl)c1)Nc1ccc(CCO)nc1` [EX-34, 1-((4-(3-chlorophenyl)-2-(trifluoromethyl)thiazol-5-yl)methyl)-3-(6-(2-hydroxyethyl)pyridin-3-yl)urea], the entry is “pAG (A Ca^2+ influx of 10%-60% reveals a partial agonist (pAG))”; as for `CC(C)(C)c1nc(-c2cccc(Cl)c2)c(CNC(=O)Nc2ccc(CCO)nc2)s1` [EX-36, 1-((2-(tert-butyl)-4-(3-chlorophenyl)thiazol-5-yl)methyl)-3-(6-(2-hydroxyethyl)pyridin-3-yl)urea], “AG (a Ca^2+ influx of >60% relates to a pure agonist (AG))”.

The same assay, now with this note: displacement of capsaicin 100 nM; Ki from IC50 by Cheng-Prusoff equation; read-out: (f) Ki (human) [nM] Cap.
In the case of `CC(C(=O)NCc1sc(C(F)(F)F)nc1-c1cccc(Cl)c1)c1ccc(CNS(N)(=O)=O)c(F)c1` (centres unmarked) [EX-24, N-((4-(3-chlorophenyl)-2-(trifluoromethyl)thiazol-5-yl)methyl)-2-(3-fluoro-4-((sulfamoylamino)methyl)phenyl)propanamide], the Ki (commonly a measure of affinity in units of concentration, obtained from inhibition or displacement) is 2.35 nM.
Same read-out and setting: as for `CC(C)(C)c1nc(-c2cccc(Cl)c2)c(CNC(=O)Nc2ccc(CO)nc2)o1` [EX-25, 1-((2-(tert-butyl)-4-(3-chlorophenyl)oxazol-5-yl)methyl)-3-(6-(hydroxymethyl)pyridin-3-yl)urea], the figure is 73.1 nM.
For the compound `CC(C)(C)c1nc(-c2cccc(Cl)c2)c(CNC(=O)Nc2ccc(CO)nc2)s1` [EX-26, 1-((2-(tert-butyl)-4-(3-chlorophenyl)thiazol-5-yl)methyl)-3-(6-(hydroxymethyl)pyridin-3-yl)urea], the Ki stood at 10.2 nM.
The same measure, in the same setting: as for `O=C(NCc1oc(C(F)(F)F)nc1-c1cccc(Cl)c1)Nc1ccc(CO)nc1` [EX-27, 1-((4-(3-chlorophenyl)-2-(trifluoromethyl)oxazol-5-yl)methyl)-3-(6-(hydroxymethyl)pyridin-3-yl)urea], the figure is 62.5 nM.
The same measure, in the same setting: as for `O=C(NCc1sc(C(F)(F)F)nc1-c1cccc(Cl)c1)Nc1ccc(CO)nc1` [EX-28, 1-((4-(3-chlorophenyl)-2-(trifluoromethyl)thiazol-5-yl)methyl)-3-(6-(hydroxymethyl)pyridin-3-yl)urea], the figure is 19.4 nM; as for `CS(=O)(=O)CCc1ccc(NC(=O)NCc2sc(C(F)(F)F)nc2-c2cccc(Cl)c2)cn1` [EX-31, 1-((4-(3-chlorophenyl)-2-(trifluoromethyl)thiazol-5-yl)methyl)-3-(6-(2-(methylsulfonyl)ethyl)pyridin-3-yl)urea], 48.8 nM; as for `O=C(NCc1oc(C(F)(F)F)nc1-c1cccc(Cl)c1)Nc1ccc(N2CC(O)C2)nc1` [EX-32, 1-((4-(3-chlorophenyl)-2-(trifluoromethyl)oxazol-5-yl)methyl)-3-(6-(3-hydroxyazetidin-1-yl)pyridin-3-yl)urea], 60.8 nM.
Same read-out and setting: then `O=C(NCc1sc(C(F)(F)F)nc1-c1cccc(Cl)c1)Nc1ccc(N2CC(O)C2)nc1` [EX-33, 1-((4-(3-chlorophenyl)-2-(trifluoromethyl)thiazol-5-yl)methyl)-3-(6-(3-hydroxyazetidin-1-yl)pyridin-3-yl)urea], with 24.6 nM; and `O=C(NCc1sc(C(F)(F)F)nc1-c1cccc(Cl)c1)Nc1ccc(CCO)nc1` [EX-34, 1-((4-(3-chlorophenyl)-2-(trifluoromethyl)thiazol-5-yl)methyl)-3-(6-(2-hydroxyethyl)pyridin-3-yl)urea], with 30.2 nM.
As for `CC(C)(C)c1nc(-c2cccc(Cl)c2)c(CNC(=O)Nc2ccc(CCO)nc2)o1` [EX-35, 1-((2-(tert-butyl)-4-(3-chlorophenyl)oxazol-5-yl)methyl)-3-(6-(2-hydroxyethyl)pyridin-3-yl)urea], the Ki came out at 78.4 nM.
Same read-out and setting: as for `CC(C)(C)c1nc(-c2cccc(Cl)c2)c(CNC(=O)Nc2ccc(CNS(C)(=O)=O)cc2)o1` [EX-38, N-(4-(3-((2-(tert-butyl)-4-(3-chlorophenyl)oxazol-5-yl)methyl)ureido)benzyl)methanesulfonamide], the figure is 52.6 nM; as for `CC(C)(C)c1nc(-c2cccc(F)c2)c(CNC(=O)Nc2ccc(CNS(C)(=O)=O)cc2)s1` [EX-39, N-(4-(3-((2-(tert-butyl)-4-(3-fluorophenyl)thiazol-5-yl)methyl)ureido)benzyl)methanesulfonamide], 17.6 nM; as for `CC(C)(C)c1nc(-c2cccc(Cl)c2)c(CNC(=O)Nc2ccc(OCCO)nc2)o1` [EX-40, 1-((2-(tert-butyl)-4-(3-chlorophenyl)oxazol-5-yl)methyl)-3-(6-(2-hydroxyethoxy)pyridin-3-yl)urea], 43.6 nM.
As to `CC(C)(C)c1nc(-c2cccc(Cl)c2)c(CNC(=O)Nc2ccc(OCCO)nc2)s1` [EX-41, 1-((2-(tert-butyl)-4-(3-chlorophenyl)thiazol-5-yl)methyl)-3-(6-(2-hydroxyethoxy)pyridin-3-yl)urea], the Ki came to 27.5 nM.
Same read-out and setting: as for `O=C(NCc1oc(C(F)(F)F)nc1-c1cccc(Cl)c1)Nc1ccc(OCCO)nc1` [EX-42, 1-((4-(3-chlorophenyl)-2-(trifluoromethyl)oxazol-5-yl)methyl)-3-(6-(2-hydroxyethoxy)pyridin-3-yl)urea], the figure is 103 nM; as for `O=C(NCc1sc(C(F)(F)F)nc1-c1cccc(Cl)c1)Nc1ccc(OCCO)nc1` [EX-43, 1-((4-(3-chlorophenyl)-2-(trifluoromethyl)thiazol-5-yl)methyl)-3-(6-(2-hydroxyethoxy)pyridin-3-yl)urea], 29.8 nM; as for `CC(C)(C)c1nc(CNC(=O)Nc2ccc(CNS(N)(=O)=O)cc2)c(-c2cccc(Cl)c2)o1` [EX-44, N-((5-(3-chlorophenyl)-2-(tertbutyl)oxazol-4-yl)methyl)-N′-(4-((sulfamoylamino)methyl)phenyl)urea], 29.9 nM.
As for `CC(C)(C)c1nc(-c2cccc(Cl)c2)c(CNC(=O)Nc2ccc(COCCO)nc2)s1` [EX-47, 1-((2-(tert-butyl)-4-(3-chlorophenyl)thiazol-5-yl)methyl)-3-(6-((2-hydroxyethoxy)-methyl)pyridin-3-yl)urea dihydrochloride], the Ki was 33.3 nM.
